In the experiment the test system is Wnt signaling. The experiment in a line: Wnt-Luc reporter assay for pathway inhibition of Wnt signaling. It counts as cell-based, mouse (TM3 Wnt-Luc) or human (293 Wnt-Luc); not stated which. Conditions: Wnt-Luc reporter cells co-cultured with L-cell Wnt3a cells, 24 hours, luciferase signal reduced by 50%. How it is done: This example provides a method that is useful for evaluating test compounds for inhibition of Wnt signaling.
Mouse leydig cell TM3 cells (obtained from American Type Culture Collection, ATCC, Manassas, Va.) are cultured in 1:1 mixture of Ham's F12 medium and Dulbecco's modified Eagle's medium (Gibco/Invitrogen, Carlsbad, Calif.) supplemented with 2.5% FBS (Gibco/Invitrogen, Carlsbad, Calif.) and 5% horse serum (Gibco/Invitrogen, Carlsbad, Calif.), 50 unit/mL penicillin and 50 μg/mL of streptomycin (Gibco/Invitrogen, Carlsbad, Calif.) at 37° C. with 5% CO2 in air atmosphere. TM3 cells in a 10 cm dish are co-transfected with 8 μg of STF-reporter plasmid containing a luciferase gene driven by Wnt-responsive elements and 2 μg of pcDNA3.1-Neo (Gibco/Invitrogen, Carlsbad, Calif.) with 30 μL of FuGENE6 (Roche Diagnostics, Indianapolis, Ind.) following the manufacturer's protocol. Stable cell lines (TM3 Wnt-Luc) were selected with 400 μg/mL of G418 (Gibco/Invitrogen, Carlsbad, Calif.). The TM3 Wnt-Luc cells and L-cell Wnt3a cells (obtained from American Type Culture Collection, ATCC, Manassas, Va.; cultured in Dulbecco's modified Eagle's medium (Gibco/Invitrogen, Carlsbad, Calif.) supplemented with 10% FBS (Gibco/Invitrogen, Carlsbad, Calif.) and 50 unit/mL penicillin and 50 μg/mL of streptomycin (Gibco/Invitrogen, Carlsbad, Calif.) at 37° C. with 5% CO2 in air atmosphere) are trypsinized and co-cultured into a 384-well plate with DMEM medium supplemented with 2% FBS, and treated with different concentrations of a compound of the invention. After 24 hours, the firefly luciferase activities are assayed with the Bright-Glo™ Luciferase Assay System (Promega, Madison, Wis.). The IC50 is measured when the effect of the compound reduces the luminescence signal by 50%.
This example provides another method that is useful for evaluating test compounds for inhibition of Wnt signaling.
Human embryonic kidney 293 cells (obtained from American Type Culture Collection, ATCC, Manassas, Va.) are cultured in DMEM medium (Gibco/Invitrogen, Carlsbad, Calif.) supplemented with 10% FBS (Gibco/Invitrogen, Carlsbad, Calif.), 50 unit/mL penicillin and 50 μg/mL of streptomycin (Gibco/Invitrogen, Carlsbad, Calif.) at 37° C. with 5% CO2 in air atmosphere. 293 cells in a 10 cm dish are co-transfected with 8 μg of STF-reporter plasmid containing a luciferase gene driven by Wnt-responsive elements and 2 μg of pcDNA3.1-Neo (Gibco/Invitrogen, Carlsbad, Calif.) with 30 μL of FuGENE6 (Roche Diagnostics, Indianapolis, Ind.) following the manufacturer's protocol. Stable cell lines (293 Wnt-Luc) were selected with 400 μg/mL of G418 (Gibco/Invitrogen, Carlsbad, Calif.). The 293 Wnt-Luc cells and L-cell Wnt3a cells (obtained from American Type Culture Collection, ATCC, Manassas, Va.) are trypsinized and co-cultured into a 384-well plate with DMEM medium supplemented with 2% FBS, and treated with different concentrations of a compound of the invention. After 24 hours, the firefly luciferase activities are assayed with the Bright-Glo™ Luciferase Assay System (Promega, Madison, Wis.). The IC50 is measured when the effect of the compound reduces the luminescence signal by 50%.
In general terms: A reporter such as luciferase makes a cellular process visible.
Regarding `CC(=O)c1cccc(-c2ccc(C(=O)NCc3ccc(-c4ccnc(C)c4)nc3)nc2)c1` [compound 31, 5-(3-acetylphenyl)-N-{[6-(2-methylpyridin-4-yl)pyridin-3-yl]methyl}pyridine-2-carboxamide], half-maximal inhibition (IC50) was put at 8 nM. The same measure for `O=C(NCc1ccc(-c2ccnc(C(F)(F)F)c2)nc1)c1ccc(-c2cnccn2)cc1` [compound 32, 4-(pyrazin-2-yl)-N-({6-[2-(trifluoromethyl)pyridin-4-yl]pyridin-3-yl}methyl)benzamide]: 0.7 nM; for `O=C(NCc1ccc(-c2ccnc(C(F)(F)F)c2)nc1)c1ccc(-c2cccc(F)c2)cn1` [compound 33, 5-(3-Fluorophenyl)-N-((2′-(trifluoromethyl)-2,4′-bipyridin-5-yl)methyl)picolinamide]: 0.2 nM. With `Cc1cc(-c2ccc(CNC(=O)c3ccc(-c4ccc(F)cc4)cn3)cn2)ccn1` [compound 35, 5-(4-fluorophenyl)-N-{[6-(2-methylpyridin-4-yl)pyridin-3-yl]methyl}pyridine-2-carboxamide] the figure was 4.9 nM; with `Cc1cc(-c2ncc(CNC(=O)c3ccc(-c4cccc(F)c4)cn3)cc2C)ccn1` [compound 36, 5-(3-fluorophenyl)-N-{[5-methyl-6-(2-methylpyridin-4-yl)pyridin-3-yl]methyl}pyridine-2-carboxamide], 0.3 nM; with `O=C(NCc1ccc(-c2ccnc(F)c2)nc1)c1ccc(-c2ccnnc2)cn1` [compound 37, N-{[6-(2-fluoropyridin-4-yl)pyridin-3-yl]methyl}-5-(pyridazin-4-yl)pyridine-2-carboxamide], 42 nM. As to `CN(C)c1ccc(-c2ccc(C(=O)NCc3ccc(-c4ccnc(F)c4)nc3)nc2)cn1` [compound 38, 6′-(Dimethylamino)-N-((2′-fluoro-2,4′-bipyridin-5-yl)methyl)-3,3′-bipyridine-6-carboxamide], the IC50 (in general, the point on the concentration scale where inhibition reaches its midpoint) stood at 0.56 nM.

Consider `Cc1cc(CNC(=O)c2ccc(-c3cnccn3)cn2)cnc1-c1ccnc(F)c1` [compound 39, N-{[6-(2-fluoropyridin-4-yl)-5-methylpyridin-3-yl]methyl}-5-(pyrazin-2-yl)pyridine-2-carboxamide], for which the IC50 came to 0.26 nM. With `Cc1cc(CNC(=O)c2ccc(-c3cnccn3)nc2)cnc1-c1ccnc(F)c1` [compound 40, N-{[6-(2-fluoropyridin-4-yl)-5-methylpyridin-3-yl]methyl}-6-(pyrazin-2-yl)pyridine-3-carboxamide] the figure was 0.76 nM. The same measure for `O=C(NCc1ccc(-c2ccnc(C(F)(F)F)c2)nc1)c1ccc(-c2cnccn2)cn1` [compound 41, 5-(Pyrazin-2-yl)-N-((2′-(trifluoromethyl)-2,4′-bipyridin-5-yl)methyl)picolinamide]: 0.36 nM; for `O=C(NCc1ccc(-c2ccnc(C(F)(F)F)c2)nc1)c1ccc(-c2cnccn2)nc1` [compound 42, 6-(Pyrazin-2-yl)-N-((2′-(trifluoromethyl)-2,4′-bipyridin-5-yl)methyl)nicotinamide]: 0.79 nM; for `CS(=O)(=O)c1cccc(-c2ccc(C(=O)NCc3ccc(-c4ccnc(F)c4)nc3)nc2)c1` [compound 43, N-((2′-Fluoro-2,4′-bipyridin-5-yl)methyl)-5-(3-(methylsulfonyl)phenyl)picolinamide]: 718 nM.

The compound `O=C(NCc1ccc(-c2ccnc(F)c2)nc1)c1ccc(-n2ccccc2=O)cn1` [compound 44, N-((2′-fluoro-[2,4′-bipyridin]-5-yl)methyl)-2-oxo-2H-[1,3′-bipyridine]-6′-carboxamide] had an IC50 of 465 nM. `Cc1cc(-c2ccc(CNC(=O)c3ccc(-c4ccccc4C)cc3)cn2)ccn1` [compound 45, 4-(2-methylphenyl)-N-{[6-(2-methylpyridin-4-yl)pyridin-3-yl]methyl}benzamide] had an IC50 of 3.5 nM. The compound `CC(=O)N1CCN(c2ccc(C(=O)NCc3cnc(-c4ccnc(C(F)(F)F)c4)c(F)c3)cn2)CC1` [compound 46, 6-(4-Acetylpiperazin-1-yl)-N-((3-fluoro-2′-(trifluoromethyl)-[2,4′-bipyridin]-5-yl)methyl)nicotinamide] returned a 50% inhibitory concentration (IC50) of 4.2 nM. As for `Cc1cc(CNC(=O)c2ccc(-c3cccc(F)c3)nc2)cnc1-c1ccnc(C(F)(F)F)c1` [compound 47, 6-(3-fluorophenyl)-N-({5-methyl-6-[2-(trifluoromethyl)pyridin-4-yl]pyridin-3-yl}methyl)pyridine-3-carboxamide], the IC50 is 0.26 nM. With `CC(=O)N1CCN(c2ccc(C(=O)NCc3cnc(-c4ccnc(C(F)(F)F)c4)c(C)c3)nc2)CC1` [compound 48, 5-(4-Acetylpiperazin-1-yl)-N-((3-methyl-2′-(trifluoromethyl)-2,4′-bipyridin-5-yl)methyl)picolinamide] the figure was 26 nM; with `COC(=O)N1CCN(c2ccc(C(=O)NCc3cnc(-c4ccnc(C(F)(F)F)c4)c(F)c3)nc2)CC1` [compound 49, Methyl 4-(6-((3-fluoro-2′-(trifluoromethyl)-2,4′-bipyridin-5-yl)methylcarbamoyl)pyridin-3-yl)piperazine-1-carboxylate], 0.24 nM. The same measure for `Cc1cc(-c2ccc(CNC(=O)c3ccc(-c4ccccc4)c(C)c3)cn2)ccn1` [compound 50, 3-methyl-N-{[6-(2-methylpyridin-4-yl)pyridin-3-yl]methyl}-4-phenylbenzamide]: 3 nM; for `Cc1cc(CNC(=O)c2ccc(-c3cccnn3)nc2)cnc1-c1ccnc(F)c1` [compound 52, N-{[6-(2-fluoropyridin-4-yl)-5-methylpyridin-3-yl]methyl}-6-(pyridazin-3-yl)pyridine-3-carboxamide]: 1.6 nM; for `Cc1cc(CNC(=O)c2ccc(-c3cccnn3)nc2)cnc1-c1ccnc(C(F)(F)F)c1` [compound 53, N-({5-methyl-6-[2-(trifluoromethyl)pyridin-4-yl]pyridin-3-yl}methyl)-6-(pyridazin-3-yl)pyridine-3-carboxamide]: 10.2 nM.

For `Cc1cc(CNC(=O)c2ccc(-c3cnccn3)nc2)cnc1-c1ccnc(C(F)(F)F)c1` [compound 54, N-({5-methyl-6-[2-(trifluoromethyl)pyridin-4-yl]pyridin-3-yl}methyl)-6-(pyrazin-2-yl)pyridine-3-carboxamide], inhibition was half-maximal at 1.2 nM (IC50). With `Cc1cc(CNC(=O)c2ccc(-c3cnccn3)cn2)cnc1-c1ccnc(C(F)(F)F)c1` [compound 55, N-((3-Methyl-2′-(trifluoromethyl)-2,4′-bipyridin-5-yl)methyl)-5-(pyrazin-2-yl)picolinamide] the figure was 0.8 nM.

The compound `O=C(NCc1ccn(-c2ccnc(C(F)(F)F)c2)c(=O)c1)c1ccc(-c2cnccn2)cn1` [compound 56, N-((2-oxo-1-(2-(trifluoromethyl)pyridin-4-yl)-1,2-dihydropyridin-4-yl)methyl)-5-(pyrazin-2-yl)picolinamide] had an IC50 of 34 nM.

Compound `Cc1cc(CNC(=O)c2ccc(-c3cccc(F)c3)cn2)cnc1-c1ccnc(C(F)(F)F)c1` [compound 57, 5-(3-fluorophenyl)-N-({5-methyl-6-[2-(trifluoromethyl)pyridin-4-yl]pyridin-3-yl}methyl)pyridine-2-carboxamide] registered a half-inhibitory concentration (IC50) of 0.35 nM. `Cc1cc(CNC(=O)c2ccc(-c3cnccn3)cc2)cnc1-c1ccnc(C(F)(F)F)c1` [compound 58, N-((3-Methyl-2′-(trifluoromethyl)-2,4′-bipyridin-5-yl)methyl)-4-(pyrazin-2-yl)benzamide]: the half-inhibitory concentration (IC50) came out at 0.41 nM. With `Cc1cc(-c2ncc(CNC(=O)c3ccc(-c4cccc(F)c4)cn3)cc2F)ccn1` [compound 59, N-{[5-fluoro-6-(2-methylpyridin-4-yl)pyridin-3-yl]methyl}-5-(3-fluorophenyl)pyridine-2-carboxamide] the figure was 0.29 nM.

The values above are taken from US9181235B2, “Substituted pyridines for modulating the WNT signaling pathway” (NOVARTIS AG, priority 2010, dated 2015).
